Assay results from paper PMC9868454, “Exploring novel targets of sitagliptin for type 2 diabetes mellitus: Network pharmacology, molecular docking, molecular dynamics simulation, and SPR approaches” (Frontiers in Endocrinology, 2023).

Biological target: angiotensin-converting enzyme 2 (ACE2) (Homo sapiens, UniProt Q9BYF1)
Experiment: SPR (Biacore T200, ACE2 coupled to CM5 chip, steady-state affinity fit)
Format: binding

Sequence of angiotensin-converting enzyme 2 (ACE2) (Q9BYF1 18-805): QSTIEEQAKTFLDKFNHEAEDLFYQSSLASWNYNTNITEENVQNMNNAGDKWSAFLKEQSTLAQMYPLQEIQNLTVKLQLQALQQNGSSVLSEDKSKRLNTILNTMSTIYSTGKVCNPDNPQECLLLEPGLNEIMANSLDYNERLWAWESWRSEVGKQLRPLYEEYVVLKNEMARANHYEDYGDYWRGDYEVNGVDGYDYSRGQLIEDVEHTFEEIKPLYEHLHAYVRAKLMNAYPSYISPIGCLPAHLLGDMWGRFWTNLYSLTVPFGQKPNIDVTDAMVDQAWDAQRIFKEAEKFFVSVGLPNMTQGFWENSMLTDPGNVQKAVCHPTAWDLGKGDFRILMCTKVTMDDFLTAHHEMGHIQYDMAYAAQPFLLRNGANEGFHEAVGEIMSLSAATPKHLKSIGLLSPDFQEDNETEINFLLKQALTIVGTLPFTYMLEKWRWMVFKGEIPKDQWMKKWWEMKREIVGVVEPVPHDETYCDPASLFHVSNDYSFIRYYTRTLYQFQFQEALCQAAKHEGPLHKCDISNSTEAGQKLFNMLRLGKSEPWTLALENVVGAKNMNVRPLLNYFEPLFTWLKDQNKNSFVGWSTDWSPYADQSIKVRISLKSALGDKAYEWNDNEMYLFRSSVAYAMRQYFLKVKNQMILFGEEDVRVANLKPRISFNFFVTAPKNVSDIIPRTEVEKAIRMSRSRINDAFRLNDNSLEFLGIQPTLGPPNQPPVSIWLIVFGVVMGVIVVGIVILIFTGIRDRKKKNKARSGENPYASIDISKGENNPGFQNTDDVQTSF

## N[C@@H](CC(=O)N1CCn2c(nnc2C(F)(F)F)C1)Cc1cc(F)c(F)cc1F [sitagliptin]
  Kd: 35.1 nM
